Consider 1 compound from patent US11939330B1, “Pyrido[3,4-b]indole-6-carboxylic acid compounds as CK2 inhibitors” (KING FAISAL UNIVERSITY, priority 2023, dated 2024).

One assay concerns MIAPaCa-2 (pancreas). Nature of the assay: In vitro cytotoxic activity (MTT) assay, MIAPaCa-2. It is filed as cell-based. The following applies: Homo sapiens, MIA PaCa-2; MIAPaCa-2 (pancreas) cells, exposed for 96 hours; read-out: IC50, concentration of compound eliciting a 50% inhibition of cell proliferation. As for the experimental part:
(§1) Compounds 1-12 were screened for their in vitro cytotoxic activity utilizing a 3-(4,5-dimethyl-thiazol-2-yl)-2,5-diphenyltetrazolium bromide (MTT) assay against selected cancer human cell lines consisting of PC3 (prostate), HCT116 (colon), A375 (melanoma), H1299 (lung), MIAPaCa-2 (pancreas), HL60 (leukemia), MCF7 (breast), MDA-MB-231 (breast) (T. Mosmann, J. Immunol. Meth., 1983, 65, 55-63). The cells were cultured at 37° C. in RMPI1640 medium supplemented with 10% fetal bovine serum, 50 IU/mL penicillin, and 50 μg/mL streptomycin in a 5% CO2 incubator. All cells were sub-cultured 3 times/week by trypsinisation. Viable cells were seeded and allowed to adhere for 12 h before a test drug was added in 96-well plates at an initial density of 1.0×10^5 cells/mL. Tumour cell lines were separately exposed to various concentrations of the tested compounds followed by incubation at a temperature of 37° C. during 96 h inside a medium of fresh RMPI 1640. Cells were subsequently incubated at 37° C. using MTT at 0.5 mg/mL during 4 h. After removal of supernatant, formazan crystals were dissolved in isopropanol and the optical density was measured at 570 nm. CX-4945 was used as a positive control.

The next assay concerns MDA-MB-231 (breast). Nature of the assay: In vitro cytotoxic activity (MTT) assay, MDA-MB-231. The following applies: Homo sapiens; MDA-MB-231 (breast) cells, exposed for 96 hours; read-out: IC50, concentration of compound eliciting a 50% inhibition of cell proliferation. It is filed as cell-based. As for the experimental part:
as §1

The test system of the next assay is HL60 (leukemia). Briefly: In vitro cytotoxic activity (MTT) assay, HL60. In kind it is cell-based. The following applies: Homo sapiens, HL-60; HL60 (leukemia) cells, exposed for 96 hours; read-out: IC50, concentration of compound eliciting a 50% inhibition of cell proliferation. As for the experimental part: as §1
The test system of the next assay is H1299 (lung). Nature of the assay: In vitro cytotoxic activity (MTT) assay, H1299. In kind it is cell-based. The following applies: Homo sapiens, NCI-H1299; H1299 (lung) cells, exposed for 96 hours; read-out: IC50, concentration of compound eliciting a 50% inhibition of cell proliferation. The procedure:
as §1

The subject of the next assay is MCF7 (breast). Briefly: In vitro cytotoxic activity (MTT) assay, MCF7. In kind it is cell-based. The following applies: Homo sapiens; MCF7 (breast) cells, exposed for 96 hours; read-out: IC50, concentration of compound eliciting a 50% inhibition of cell proliferation. The procedure: as §1
The test system of a further assay is HCT116 (colon). Nature of the assay: In vitro cytotoxic activity (MTT) assay, HCT116. In kind it is cell-based. The following applies: Homo sapiens, HCT-116; HCT116 (colon) cells, exposed for 96 hours; read-out: IC50, concentration of compound eliciting a 50% inhibition of cell proliferation. As for the experimental part: as §1
In the next assay the test system is PC3 (prostate). Nature of the assay: In vitro cytotoxic activity (MTT) assay, PC3. In kind it is cell-based. The following applies: Homo sapiens, Prostate cell; PC3 (prostate) cells, exposed for 96 hours; read-out: IC50, concentration of compound eliciting a 50% inhibition of cell proliferation. The procedure: as §1
A further assay concerns the target T1, recombinant human CK2 (Homo sapiens, UniProt P68400).
T1 construct: purchased Millipore
Nature of the assay: CK2 Kinase Assay (33P-ATP, substrate peptide RRRDDDSDDD). In kind it is biochemical. The following applies: final ATP concentration 15 μM, 10 min at 30° C.; read-out: protein kinase CK2 activity IC50. The procedure:
CK2 Kinase Assay was conducted using the protocol as described in Pierre F. et al; J. Med. Chem. 2011, 54, 635-654. The tested compounds in aqueous solution were added at a volume of 10 μL to a reaction mixture comprising 10 μL of assay dilution buffer (ADB; 20 mM MOPS, pH 7.2, 25 mM β-glycerol phosphate, 5 mM EGTA, 1 mM sodium orthovanadate, and 1 mM dithiothreitol), 10 μL of substrate peptide (RRRDDDSDDD, dissolved in ADB at a concentration of 1 mM), 10 μL of recombinant human CK2 (RROP-holoenzyme, 25 ng dissolved in ADB; Millipore). Reactions were initiated by the addition of 10 μL of ATP solution (90% 75 mMMgCl2, 75 μM ATP (final ATP concentration:15 μM) dissolved in ADB; 10% [7-33P] ATP (stock 1 mCi/100 L; 3000 Ci/mmol (Perkin-Elmer) and maintained for 10 min at 30° C. The reactions were quenched with 100 μL of 0.75% phosphoric acid and then transferred to and filtered through a phosphor cellulose filter plate (Millipore). After washing each well five times with 0.75% phosphoric acid, the plate was dried under vacuum for 5 min and, following the addition of 15 μL of scintillation fluid to each well, the residual radioactivity was measured using a Wallac […] counter. The IC50 values were derived from eight concentrations of test inhibitors.

The test system of the next assay is A375 (melanoma). Nature of the assay: In vitro cytotoxic activity (MTT) assay, A375. It is filed as cell-based. The following applies: Homo sapiens, A-375; A375 (melanoma) cells, exposed for 96 hours; read-out: IC50, concentration of compound eliciting a 50% inhibition of cell proliferation. The procedure: as §1

T1 sequence (P68400 whole entry): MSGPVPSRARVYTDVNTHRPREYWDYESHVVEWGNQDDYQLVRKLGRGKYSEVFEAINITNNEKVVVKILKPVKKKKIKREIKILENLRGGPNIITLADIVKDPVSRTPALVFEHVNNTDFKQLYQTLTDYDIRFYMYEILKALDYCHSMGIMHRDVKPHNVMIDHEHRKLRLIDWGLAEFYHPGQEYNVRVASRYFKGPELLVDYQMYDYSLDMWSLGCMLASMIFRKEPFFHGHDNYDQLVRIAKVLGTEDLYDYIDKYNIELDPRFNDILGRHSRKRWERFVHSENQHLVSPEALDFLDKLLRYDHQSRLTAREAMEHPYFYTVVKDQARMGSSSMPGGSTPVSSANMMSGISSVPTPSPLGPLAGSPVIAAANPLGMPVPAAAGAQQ
T1 sequence (P67870 whole entry partner): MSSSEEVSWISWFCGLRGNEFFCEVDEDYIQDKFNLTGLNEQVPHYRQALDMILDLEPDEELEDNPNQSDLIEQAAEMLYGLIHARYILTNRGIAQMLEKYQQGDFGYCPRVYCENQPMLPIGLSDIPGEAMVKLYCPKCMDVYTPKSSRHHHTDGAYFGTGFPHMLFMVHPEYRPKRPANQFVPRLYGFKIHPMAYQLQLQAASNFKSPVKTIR

Consider `O=C(O)c1ccc2c(c1)c1ccncc1n2C(=O)c1cccc(Cl)c1` [Compound 7, 9-(3-chlorobenzoyl)-9H-pyrido[3,4-b]indole-6-carboxylic acid], for which the IC50 was found to be 1.9 µM with MIAPaCa-2 (pancreas); 3.9 µM in the assay on MDA-MB-231 (breast); 1.8 µM with HL60 (leukemia); 1.5 µM with H1299 (lung); 4.7 µM in the assay on MCF7 (breast); 2.4 µM in the assay on HCT116 (colon). Further, the values for the IC50 in the assay on PC3 (prostate), at recombinant human CK2 and in the assay with A375 (melanoma) were 1.6 µM, 0.051 µM and 3.9 µM, respectively.
